# In publication PMC6905855, “Agonist-specific voltage-dependent gating of lysosomal two-pore Na^+ channels” (eLife, 2019):
# Several values for one entry are separate records, joined by “and”; a condition that tells them apart may be missing. Identical values can stand only once.
# Legend:
# hTPC1^R540I = system: T1, hTPC1^R540I; experiment: Whole-endolysosome recordings of ITPC1-R540I; assay type: biochemical, human
# T1 construct: expressed in transfected cells; host or cells: Cos1
# [1] = system: surface-expressing mutant TRPML1 channels (TRPML1^4A); experiment: Whole-cell recordings of ITRPML1-4A; assay type: cell-based; settings: TRPML1-4A wc; 100µM; individual cells
# TPC2^LL/AA = system: T2, TPC2^LL/AA; experiment: Inside-out patch recordings of ITPC2; assay type: biochemical, human; settings: for time course of LyNa-VA1.2-induced ITPC2: I/o
# T2 construct: expressed in transfected cells; host or cells: HEK293
# TPC2^N653G = system: T3, TPC2^N653G; experiment: Whole-endolysosome recordings of ITPC2-N653G; assay type: biochemical, human; settings: for PX / PNa, K+: TPC2 N653G, agonist-activated current
# T3 construct: expressed in transfected cells
# TPC2 I551R = system: T4, TPC2 I551R; experiment: Whole-endolysosome recordings of ITPC2-I551R; assay type: biochemical, human
# T4 construct: expressed in transfected cells
# [2] = inside out, 200 µM, individual recordings
# [3] = inside-out, 200 µM, mean ± S.E.M
smiles,measurement,setting,value
"CN(C)CCCN1c2ccccc2CCc2ccc(Cl)cc21 [LyNa-VA1.1, Clomipramine]",effect on ITPC1-R540I (in words),hTPC1^R540I,dramatic enhancement of inward currents at negative potentials
same,"current, whole-cell ITRPML1-4A",[1],28.1 pA and 29.7 pA and 114.4 pA and 172.7 pA
"CNCCCN1c2ccccc2CCc2ccccc21 [LyNa-VA1.2, Desipramine]",activation of ITPC2 in inside-out patch (in words),TPC2^LL/AA; 200 µM,evoked
same,time course of LyNa-VA1.2-induced ITPC2,TPC2^LL/AA; time 0 s,-0.06927
same,time course of LyNa-VA1.2-induced ITPC2,TPC2^LL/AA; time 2 s,-0.0966
same,time course of LyNa-VA1.2-induced ITPC2,TPC2^LL/AA; time 4 s,-0.00941
same,time course of LyNa-VA1.2-induced ITPC2,TPC2^LL/AA; time 6 s,-8.49E-04
same,time course of LyNa-VA1.2-induced ITPC2,TPC2^LL/AA; time 8 s,-0.06407
same,time course of LyNa-VA1.2-induced ITPC2,TPC2^LL/AA; time 10 s,-0.08365
same,time course of LyNa-VA1.2-induced ITPC2,TPC2^LL/AA; time 12 s,-0.08538
same,time course of LyNa-VA1.2-induced ITPC2,TPC2^LL/AA; time 14 s,-0.09864
same,time course of LyNa-VA1.2-induced ITPC2,TPC2^LL/AA; time 16 s,-0.09741
same,time course of LyNa-VA1.2-induced ITPC2,TPC2^LL/AA; time 18 s,-0.1284
same,time course of LyNa-VA1.2-induced ITPC2,TPC2^LL/AA; time 20 s,-0.2599
same,time course of LyNa-VA1.2-induced ITPC2,TPC2^LL/AA; time 22 s,-0.3874
same,time course of LyNa-VA1.2-induced ITPC2,TPC2^LL/AA; time 24 s,-0.5101
same,time course of LyNa-VA1.2-induced ITPC2,TPC2^LL/AA; time 26 s,-0.54
same,time course of LyNa-VA1.2-induced ITPC2,TPC2^LL/AA; time 28 s,-0.5044
same,time course of LyNa-VA1.2-induced ITPC2,TPC2^LL/AA; time 30 s,-0.6046
same,time course of LyNa-VA1.2-induced ITPC2,TPC2^LL/AA; time 32 s,-0.6923
same,time course of LyNa-VA1.2-induced ITPC2,TPC2^LL/AA; time 34 s,-0.8892
same,time course of LyNa-VA1.2-induced ITPC2,TPC2^LL/AA; time 36 s,-0.754
same,time course of LyNa-VA1.2-induced ITPC2,TPC2^LL/AA; time 38 s,-0.8074
same,time course of LyNa-VA1.2-induced ITPC2,TPC2^LL/AA; time 40 s,-0.7387
same,time course of LyNa-VA1.2-induced ITPC2,TPC2^LL/AA; time 42 s,-0.8794
same,time course of LyNa-VA1.2-induced ITPC2,TPC2^LL/AA; time 44 s,-0.9937
same,time course of LyNa-VA1.2-induced ITPC2,TPC2^LL/AA; time 46 s,-1
same,time course of LyNa-VA1.2-induced ITPC2,TPC2^LL/AA; time 48 s,-0.9555
same,time course of LyNa-VA1.2-induced ITPC2,TPC2^LL/AA; time 50 s,-0.9211
same,time course of LyNa-VA1.2-induced ITPC2,TPC2^LL/AA; time 52 s,-0.87
same,Latency of induced ITPC2,TPC2^LL/AA; [2],8 s and 12 s and 14 s
same,Time constant (τ) of induced ITPC2,TPC2^LL/AA; [2],13.9 s and 16.3 s and 17.9 s and 21.3 s
same,latency of TPC2 activation,TPC2^LL/AA; [3],12 ± 1 s
same,time constant (τ) of TPC2 activation,TPC2^LL/AA; [3],17 ± 2 s
same,activation of TPC2 N653G (in words),TPC2^N653G,did not alter the ability of LyNa-VA1.2 to enhance channel activation
same,"PX / PNa, K+",TPC2^N653G; individual,0.5576 and 0.6267 and 0.3361 and 0.4961
same,"PX / PNa, K+",TPC2^N653G; mean,0.5041
same,activation of ITPC2-I551R (in words),TPC2 I551R,failed to affect LyNa-VA1.2 activation
